Results from patent US20260374782A1, “NEW COMPOUNDS, PROCESSES FOR PREPARING THE SAME AND THEIR USE AS DRUGS” (B&A ONCOMEDICAL, priority 2022, published 2026).
Where two headings read alike, the source gives them in different places.

Columns and labels:
NKCC1-KO HEK293 cells = assay: K+ influx (83Rb uptake) in NKCC1-KO HEK293 cells; type: cell-based, human
Experimental: A. Contribution of NKCC1 to K^+ influx in native HEK293 cells under isosmotic (basal) conditions. K^+ influx was measured in untreated cells (Cntr), cells exposed to 100 μM ouabain (ouab), 20 μM bumetanide (bum), or both. B. Signal separation between native HEK293 cells with and without 20 μM bumetanide. Cells were tested in a hypertonic saline and in the presence of 100 μM ouabain. These conditions became our standard conditions for drug testing. C. Absence of bumetanide-sensitive K^+ influx in A-NKCC1 HEK293 cells. Note that the K^+ influx was reduced to basal levels.
NKCC1 expression was eliminated from HEK293 cells using CRISPR/cas9. Cells were transfected with a vector expressing a cas9-EGFP fusion protein and a guide RNA specific to a NKCC1 sequence ([…]; SEQ ID NO: 1) located within exon 1. Two days post transfection, cells were FACS sorted and cells expressing EGFP and cas9 (green cells) were plated at 1 cell per well in 96 well plates. Cells were grown to confluence, duplicated, and tested for NKCC1 function using Tl+ (another congener of K^+) and a thallium sensitive fluorescent dye in the presence or absence of bumetanide.

[1] = cited from earlier work
NKCC2 = details: in words; cited from earlier work
NKCC1 = biological target: T1, NKCC1 (Homo sapiens, UniProt P55011); assay: NKCC1-mediated K+ influx (83Rb tracer uptake) in native HEK293 cells, hypertonic saline, 100 μM ouabain; type: cell-based
T1 construct: endogenous in cells; host or cells: native HEK293 cells
T1 sequence (P55011 1-1212): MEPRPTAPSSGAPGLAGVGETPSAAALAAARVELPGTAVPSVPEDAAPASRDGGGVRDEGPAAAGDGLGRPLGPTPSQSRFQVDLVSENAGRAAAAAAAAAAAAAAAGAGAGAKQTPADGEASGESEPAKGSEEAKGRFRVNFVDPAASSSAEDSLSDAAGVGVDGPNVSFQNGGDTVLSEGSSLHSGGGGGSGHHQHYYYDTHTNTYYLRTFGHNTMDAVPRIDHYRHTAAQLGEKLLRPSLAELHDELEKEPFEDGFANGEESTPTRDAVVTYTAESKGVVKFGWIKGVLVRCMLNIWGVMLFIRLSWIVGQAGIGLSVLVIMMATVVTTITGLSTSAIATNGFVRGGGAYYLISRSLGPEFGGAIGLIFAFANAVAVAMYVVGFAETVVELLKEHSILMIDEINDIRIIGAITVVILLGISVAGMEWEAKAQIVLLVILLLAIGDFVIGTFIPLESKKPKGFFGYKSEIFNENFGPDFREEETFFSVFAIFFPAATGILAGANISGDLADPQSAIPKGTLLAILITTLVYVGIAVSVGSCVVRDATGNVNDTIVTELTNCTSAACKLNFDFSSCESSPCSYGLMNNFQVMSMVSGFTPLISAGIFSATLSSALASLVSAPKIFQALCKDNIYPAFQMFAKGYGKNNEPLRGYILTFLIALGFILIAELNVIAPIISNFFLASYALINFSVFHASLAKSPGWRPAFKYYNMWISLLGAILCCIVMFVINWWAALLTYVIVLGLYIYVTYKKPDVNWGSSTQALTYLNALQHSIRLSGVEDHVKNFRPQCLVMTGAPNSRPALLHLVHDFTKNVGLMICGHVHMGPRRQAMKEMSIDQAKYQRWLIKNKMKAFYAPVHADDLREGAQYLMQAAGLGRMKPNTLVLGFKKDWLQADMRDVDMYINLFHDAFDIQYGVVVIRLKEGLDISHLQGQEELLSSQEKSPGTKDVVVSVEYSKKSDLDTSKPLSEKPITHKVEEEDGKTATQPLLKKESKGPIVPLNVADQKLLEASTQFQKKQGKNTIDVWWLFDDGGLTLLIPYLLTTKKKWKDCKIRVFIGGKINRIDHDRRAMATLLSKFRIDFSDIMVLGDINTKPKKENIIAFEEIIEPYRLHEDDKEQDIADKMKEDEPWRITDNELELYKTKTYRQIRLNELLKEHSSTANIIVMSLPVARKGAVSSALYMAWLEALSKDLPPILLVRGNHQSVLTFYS
Procedure, shortened: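 Native cells in slightly hypertonic saline with 100 μM ouabain; 15 min preincubation then 15 min 83Rb uptake (0.25 μCi/mL), scintillation counting normalized to protein. Compounds at 2 μM and 20 μM; flux scaled 1000 (no drug) to 0 (20 μM bumetanide), triplicate dishes.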

[2] = Fragile X, Tuberous Sclerosis, Down syndrome, or Parkinson Disease; cited from earlier work
[3] = HEK293, 2 μM, no drug = 1000, 20 μM bumetanide = 0, read-out: NKCC1 mediated flux inhibition at 2 μM (%)
[4] = HEK293, 20 μM, no drug = 1000, 20 μM bumetanide = 0, read-out: NKCC1 mediated flux inhibition at 20 μM (%)
[5] = 2 μM, native HEK293, read-out: Percent inhibition of drugs on NKCC1, 2 uM
[6] = 20 μM, native HEK293, read-out: Percent inhibition of drugs on NKCC1, 20 uM

Question: Which “effect on K+ influx in NKCC1-KO cells” value (NKCC1-KO HEK293 cells) does the source give for `CCCCNc1cc(C(=O)O)cc(S(N)(=O)=O)c1Oc1ccccc1` [Bumetanide] here?
Answer: no longer affected K^+ influx

Question: And the “brain levels lower than the plasma” value ([1]; brain vs plasma)?
Answer: 200-300 fold

Question: What about the “blood brain barrier permeability” value ([1]; in words) of the same compound?
Answer: quite impermeable

Question: And the diuretic potency (NKCC2)?
Answer: high diuretic potency

Question: And the “flux (normalized)” value (NKCC1; 2 μM, no drug flux=1000, 20 μM bumetanide flux=0, n=6)?
Answer: 171±21

Question: And the “attenuation of severity of disorders” value [2]?
Answer: attenuation

Question: What does the source list for `CCCCN=S(C)(=O)c1cc(C(=O)O)cc(NCCCC)c1Oc1ccccc1` (centres unmarked) [Compound 131, 3-(butylamino)-5-(N-butyl-S-methyl-sulfonimidoyl)-4-phenoxy-benzoic acid]?
Answer: inhibition at 2 µM (NKCC1; [3]): 30 to 50%; inhibition at 20 µM (NKCC1; [4]): ≥ 75%

Question: Which inhibition at 2 µM (NKCC1; [3]) does the source give for `CN=S(C)(=O)c1cc(C(=O)OC)cc(N)c1Oc1ccccc1` (centres unmarked) [Compound 132, methyl 3-amino-5-(N,S-dimethylsulfonimidoyl)-4-phenoxy-benzoate] here?
Answer: 30 to 50%

Question: What about the inhibition at 20 µM (NKCC1; [4]) of the same compound?
Answer: 10 to 30%

Question: Which inhibition at 2 µM (NKCC1; [3]) does the source give for `CCCCNc1cc(C(=O)OC)cc(S(C)(=O)=NC)c1Oc1ccccc1` (centres unmarked) [Compound 133, methyl 3-(butylamino)-5-(N,S-dimethylsulfonimidoyl)-4-phenoxy-benzoate] here?
Answer: 30 to 50%

Question: And the inhibition at 20 µM (NKCC1; [4])?
Answer: 10 to 30%

Question: Which results are given for `CCCCNc1cc(C(=O)O)cc(S(C)(=O)=NC)c1Oc1ccccc1` (centres unmarked) [Compound 134, 3-(butylamino)-5-(N,S-dimethylsulfonimidoyl)-4-phenoxy-benzoic acid]?
Answer: inhibition at 2 µM (NKCC1; [3]): 30 to 50%; inhibition at 20 µM (NKCC1; [4]): 50 to 75%

Question: For `C[C@@H]1O[C@@H](O[C@H]2C[C@@H](O)[C@]3(CO)[C@H]4[C@H](O)C[C@]5(C)[C@@H](C6=CC(=O)OC6)CC[C@]5(O)[C@@H]4CC[C@]3(O)C2)[C@H](O)[C@H](O)[C@H]1O` [Ouabain, ouabain, reference compound], which “effect on flux not mediated by the cotransporter” value (NKCC1; 100 μM, inhibitor of the Na+/K+ pump) is on record?
Answer: greatly reduced the flux not mediated by the cotransporter

Question: With `CCCCNc1cc(C(=O)O)cc(S(N)(=O)=O)c1Oc1ccccc1` [Ref 1, bumetanide, reference compound] as the compound, how does the inhibition at 2 µM (NKCC1; [5]) read?
Answer: 87%

Question: And the inhibition at 20 µM (NKCC1; [6])?
Answer: 100%

Question: And the “K+ influx in the presence of compound” value (NKCC1; 20 μM, native HEK293 without compound 7000-9000)?
Answer: 600-900 pmoles K+ per mg protein per m

Question: With `NS(=O)(=O)c1cc(C(=O)O)c(NCc2ccco2)cc1Cl` [Ref 2, furosemide, reference compound] as the compound, how does the inhibition at 2 µM (NKCC1; [5]) read?
Answer: 32%

Question: What about the inhibition at 20 µM (NKCC1; [6]) of the same compound?
Answer: 77%
